In ChEMBL document CHEMBL4229505, “4-Aminophenyl acetamides and propanamides as potent transient receptor potential vanilloid 1 (TRPV1) ligands” (Bioorg Med Chem, 2018):
pIC50, pKi: −log10 of the molar value. Calls of active or inactive are those of the source. The rule behind the calls is not given here.

Assays:
[1] = target: T1, Transient receptor potential cation channel subfamily V member 1 (Homo sapiens, UniProt Q8NER1); test: Agonist activity at human TRPV1 expressed in CHO cells assessed as intracellular calcium accumulation by Fluo-4 dye based FLIPR assay; format: cell-based
[2] = target: T1, Transient receptor potential cation channel subfamily V member 1; test: Antagonist activity at human TRPV1 expressed in CHOK1 cells assessed as reduction in capsaicin-induced intracellular calcium level preincubated for 6 mins followed by capsaicin addition by Fluo-4 dye based FLIPR assay; format: cell-based; details: for pKi: read-out: Ki
[3] = target: T1, Transient receptor potential cation channel subfamily V member 1; test: Partial agonist activity at human TRPV1 expressed in CHO cells assessed as intracellular calcium accumulation by Fluo-4 dye based FLIPR assay; format: cell-based
Mus musculus [4] = test: Anti-hypothermic activity in NMRI mouse assessed as inhibition of capsaicin-induced […] in body temperature at 3 mg/kg, po pretreated for 15 mins followed by capsaicin treatment measured up to 120 mins relative to control; format: functional
[5] = target: T1, Transient receptor potential cation channel subfamily V member 1; test: Antagonist activity at human TRPV1 expressed in CHOK1 cells assessed as reduction in NADA-induced intracellular calcium level preincubated with cells followed by NADA addition measured after 5 mins by Fluo-4 dye based FLIPR assay; format: cell-based
[6] = target: T1, Transient receptor potential cation channel subfamily V member 1; test: Antagonist activity at human TRPV1 expressed in CHOK1 cells assessed as reduction in low pH-induced receptor activation by measuring decrease in intracellular calcium level preincubated with cells for 5 mins followed by incubation under pH 6 to 6.3 condition by Fluo-4 dye based FLIPR assay; format: cell-based
[7] = target: T1, Transient receptor potential cation channel subfamily V member 1; test: Antagonist activity at human TRPV1 expressed in CHOK1 cells assessed as reduction in heat-induced intracellular calcium level preincubated with cells for 5 mins followed by incubation under 45 degC by Fluo-4 dye based FLIPR assay; format: cell-based
Mus musculus [8] = test: Anti-hypothermic activity in NMRI mouse assessed as inhibition of capsaicin-induced […] in body temperature at 10 mg/kg, po pretreated for 15 mins followed by capsaicin treatment measured up to 120 mins relative to control; format: functional
Mus musculus [9] = test: Induction of hyperthermic effect in NMRI mouse assessed as increase in body temperature at 3 mg/kg, po; format: organism-based; details: in vivo

T1 sequence (Q8NER1 whole entry): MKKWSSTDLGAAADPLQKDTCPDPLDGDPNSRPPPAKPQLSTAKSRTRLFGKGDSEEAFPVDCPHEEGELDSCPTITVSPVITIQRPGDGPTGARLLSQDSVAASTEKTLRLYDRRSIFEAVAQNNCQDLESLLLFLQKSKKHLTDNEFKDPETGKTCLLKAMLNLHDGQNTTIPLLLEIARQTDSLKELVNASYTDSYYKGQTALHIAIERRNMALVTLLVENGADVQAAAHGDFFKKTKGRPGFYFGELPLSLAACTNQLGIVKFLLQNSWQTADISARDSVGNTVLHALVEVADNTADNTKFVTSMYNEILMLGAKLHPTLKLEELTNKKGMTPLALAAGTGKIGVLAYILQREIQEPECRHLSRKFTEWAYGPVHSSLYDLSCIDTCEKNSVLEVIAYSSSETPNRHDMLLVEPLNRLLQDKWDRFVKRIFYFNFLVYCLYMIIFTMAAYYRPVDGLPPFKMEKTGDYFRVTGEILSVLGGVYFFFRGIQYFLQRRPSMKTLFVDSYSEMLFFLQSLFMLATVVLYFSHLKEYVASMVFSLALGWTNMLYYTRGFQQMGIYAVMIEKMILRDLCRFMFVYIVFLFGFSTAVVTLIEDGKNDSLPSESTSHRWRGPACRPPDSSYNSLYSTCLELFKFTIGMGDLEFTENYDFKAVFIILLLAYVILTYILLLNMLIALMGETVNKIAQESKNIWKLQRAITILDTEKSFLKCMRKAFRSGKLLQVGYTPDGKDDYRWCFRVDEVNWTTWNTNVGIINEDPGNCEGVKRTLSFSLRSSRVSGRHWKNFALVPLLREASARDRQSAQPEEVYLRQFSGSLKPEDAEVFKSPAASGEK

SMILES	Activity [1]	pKi [2]	other results
COc1cc(C(C)C(=O)NCc2ccc(C(F)(F)F)nc2N2CCC(C)CC2)ccc1N (centres undefined)	Active		
CC1CCN(c2nc(C(F)(F)F)ccc2CNC(=O)C(C)c2ccc(Nc3ccc(F)cc3)cc2)CC1 (centres undefined)			Ki [2]: Not Active
COc1ccc(Nc2ccc(C(C)C(=O)NCc3ccc(C(F)(F)F)nc3N3CCC(C)CC3)cc2)cc1 (centres undefined)			Activity [3]: Active
CC1CCN(c2nc(C(F)(F)F)ccc2CNC(=O)C(C)c2ccc(Nc3ccc(Cl)cc3)cc2)CC1 (centres undefined)		7.18	
CC1CCN(c2nc(C(F)(F)F)ccc2CNC(=O)C(C)c2ccc(NC(=O)C(C)C)c(F)c2)CC1 (centres undefined)		7.58	
CC1CCN(c2nc(C(F)(F)F)ccc2CNC(=O)C(C)c2cc(Cl)c(N)c(Cl)c2)CC1 (centres undefined)		8.62	
CC1CCN(c2nc(C(F)(F)F)ccc2CNC(=O)C(C)c2ccc(N)c(F)c2)CC1 (centres undefined)	Active		
Cc1cc(C(C)C(=O)NCc2ccc(C(F)(F)F)nc2N2CCC(C)CC2)ccc1N (centres undefined)	Active		
CC1CCN(c2nc(C(F)(F)F)ccc2CNC(=O)C(C)c2ccc(NC(=O)c3ccccc3)c(F)c2)CC1 (centres undefined)		8.13	
CC1CCN(c2nc(C(F)(F)F)ccc2CNC(=O)C(C)c2ccc(NC(=O)C(C)(C)C)c(F)c2)CC1 (centres undefined)		7.28	
CC1CCN(c2nc(C(F)(F)F)ccc2CNC(=O)C(C)c2ccc(Nc3ccccn3)cc2)CC1 (centres undefined)	Active		
CC1CCN(c2nc(C(F)(F)F)ccc2CNC(=O)C(C)c2cc(O)c(N)c(F)c2)CC1 (centres undefined)		8.28	
CC1CCN(c2nc(C(F)(F)F)ccc2CNC(=O)Cc2cc(Cl)c(N)c(Cl)c2)CC1		9.52	inhibition in vivo at 3 mg/kg (Mus musculus [4]): 57%; pKi [5]: 9.15 to 10.00; pIC50 [6]: 6.80; pIC50 [7]: 7.89; inhibition in vivo at 10 mg/kg (Mus musculus [8]): 128%; deltaT (Mus musculus [9]): > 1 °C
CC1CCN(c2nc(C(F)(F)F)ccc2CNC(=O)C(C)c2ccc(NC(=O)C3CC3)c(F)c2)CC1 (centres undefined)		7.70	
CC1CCN(c2nc(C(F)(F)F)ccc2CNC(=O)C(C)c2ccc(N)c(N)c2)CC1 (centres undefined)	Active		
COc1cc(C(C)C(=O)NCc2ccc(C(F)(F)F)nc2N2CCC(C)CC2)cc(F)c1N (centres undefined)			Activity [3]: Active
CC1CCN(c2nc(C(F)(F)F)ccc2CNC(=O)C(C)c2ccc(Nc3ccccc3)cc2)CC1 (centres undefined)	Active		
COc1cc(C(C)C(=O)NCc2ccc(C(F)(F)F)nc2N2CCC(C)CC2)cc(OC)c1N (centres undefined)		7.68	
